Consider 3 compounds from publication PMC4838552 (ChemMedChem, 2016).

A short description of one series: Protein binding study. The format is in vitro ADME.
Series [1] can be described thus: Caco-2 permeability study. The class given is in vitro ADME. As to conditions: human. For orientation: Caco-2 monolayers are a common model of the intestinal barrier.
The next series has as its target RPA70N (Homo sapiens, UniProt P27694). The experiment in a line: FPA competition assay. The format is binding. As to conditions: for LE (ligand efficiency): LE = 1.4*pKd/HAC, using the FPA data.
The target in series [2] is ssDNA binding to RPA70AB in the RPA70NAB construct (Homo sapiens, UniProt P27694). The experiment in a line: Fluorescence-based DNA binding assay. As to conditions: Kd for ssDNA binding to RPA70AB in RPA70NAB, absence vs presence of compound.

Regarding `Cc1ccc(C(=O)Nc2cc(Br)ccc2C(=O)O)cc1S(=O)(=O)Nc1ccc(Cl)c(Cl)c1` [Compound 20c, 4-Bromo-2-(3-(N-(3,4-dichlorophenyl)sulfamoyl)-4-methylbenzamido)benzoic acid], in “Protein binding study”, the fraction unbound was 0.002. Also, the Papp A→B in series [1] stood at 29.2 ×10⁻⁶ cm/s. The “LE (ligand efficiency)” value on RPA70N amounted to 0.27. Also, the “effect on ssDNA binding to RPA” value in series [2] is “does not affect ssDNA binding to RPA”.

For the compound `Cc1ccc(C(=O)Nc2ccccc2C(=O)O)cc1S(=O)(=O)Nc1ccc(Br)cc1` [Compound 11, 2-(3-(N-(4-bromophenyl)sulfamoyl)-4-methylbenzamido)benzoic acid], the “LE (ligand efficiency)” value on RPA70N was 0.21.

Turning to `Cc1ccc(C(=O)Nc2ccccc2C(=O)O)cc1S(=O)(=O)Nc1cccc(Cl)c1` [Compound 18, 2-(3-(N-(3-chlorophenyl)sulfamoyl)-4-methylbenzamido)benzoic acid], the “LE (ligand efficiency)” value at RPA70N came to 0.21. The “potency relative to 11 (fold less potent)” value on RPA70N (compared with compound 11) is on record as “equipotent”.

For orientation: fraction unbound means free concentration divided by total concentration. A word on the Papp A→B: it is the apparent permeability from the apical to the basolateral side of a cell layer. Read a low Papp A→B as poor permeation.
